Laboratory results reported in BindingDB's records for patent US20250382308 (Nuevolution, 2025).

What was measured:
[1] = target: T1, Bromodomain-containing protein 4 [58-164] (Homo sapiens, UniProt O60885); test: Bromodomain Assay
T1 construct: 58-164
Method: (§1) The liganded beads were blocked with excess biotin and washed with blocking buffer (SeaBlock (Pierce), 1% BSA (bovine serum albumin), 0.05% Tween 20, 1 mM DTT (dithiothreitol)) to remove unbound ligand and to reduce non-specific phage binding. […] Test compounds were prepared as 1000× stocks in 100% DMSO and subsequently diluted 1:10 in monoethylene glycol (MEG) to create stocks at 100× the screening concentration (resulting stock solution is 10% DMSO/90% MEG). The compounds were then diluted directly into the assays such that the final concentration of DMSO and MEG were 0.1% and 0.9%, respectively. All reactions were performed in polystyrene 96-well plates in a final volume of 0.135 ml. […] The bromodomain concentration in the eluates was measured by qPCR (quantitative real-time polymerase chain reaction).

[2] = target: T2, Bromodomain-containing protein 4 [353-454] (Homo sapiens, UniProt O60885); test: Bromodomain Assay
T2 construct: 353-454
Method: as §1

[3] = target: cGMP-inhibited 3',5'-cyclic phosphodiesterase 3A (Homo sapiens, UniProt Q14432); test: Radiometric PDE3A Assay
Method: Partially purified human recombinant phosphodiesterase (PDE3A) was obtained by cloning cDNA and expressing in S. frugiperda insect cells using a baculovirus expression system. Cells were harvested from culture by centrifuging at 400×g for 5 minutes. Cell pellet was resuspended in 20 ml of RIPA Buffer (150 mM NaCl, 10 mM Tris, 0.1% NP-40, pH8.3), 4 ml/200 ml of culture, plus protease inhibitors (100 μl/10 ml) and incubated on ice for 10-20 minutes then spun at 3500×g for 10 minutes at 4° C. Supernatant was kept and the pellet thrown away. Tritium-labeled cyclic AMP was hydrolysed to 5′-AMP by PDE3A. The 5′-AMP was then further hydrolysed to adenosine by nucleotidase in snake venom. An anion-exchange resin binds all charged nucleotides and leaves [3H]adenosine as the only labeled compound to be counted by liquid scintillation. The radiometric assay method is a modification of the two-step method of Thompson and Appleman [Biochemistry 10; 311-316; 1971], adapted for a 96 well plate format. 50 μl of diluted PDE3A was incubated with 50 μl of [3H]-CAMP (specific activity 25 Ci/mmol) and 11 μl of 50% DMSO (or compound dilution) for 20 minutes at 30° C. […] 50 μl of supernatant was removed and added to 200 μl of MicroScint-20 in white plates (Greiner 96-well Optiplate) and shaken for 30 minutes before reading on Perkin Elmer TopCount Scintillation Counter.

Sequence of cGMP-inhibited 3',5'-cyclic phosphodiesterase 3A (Q14432 whole entry): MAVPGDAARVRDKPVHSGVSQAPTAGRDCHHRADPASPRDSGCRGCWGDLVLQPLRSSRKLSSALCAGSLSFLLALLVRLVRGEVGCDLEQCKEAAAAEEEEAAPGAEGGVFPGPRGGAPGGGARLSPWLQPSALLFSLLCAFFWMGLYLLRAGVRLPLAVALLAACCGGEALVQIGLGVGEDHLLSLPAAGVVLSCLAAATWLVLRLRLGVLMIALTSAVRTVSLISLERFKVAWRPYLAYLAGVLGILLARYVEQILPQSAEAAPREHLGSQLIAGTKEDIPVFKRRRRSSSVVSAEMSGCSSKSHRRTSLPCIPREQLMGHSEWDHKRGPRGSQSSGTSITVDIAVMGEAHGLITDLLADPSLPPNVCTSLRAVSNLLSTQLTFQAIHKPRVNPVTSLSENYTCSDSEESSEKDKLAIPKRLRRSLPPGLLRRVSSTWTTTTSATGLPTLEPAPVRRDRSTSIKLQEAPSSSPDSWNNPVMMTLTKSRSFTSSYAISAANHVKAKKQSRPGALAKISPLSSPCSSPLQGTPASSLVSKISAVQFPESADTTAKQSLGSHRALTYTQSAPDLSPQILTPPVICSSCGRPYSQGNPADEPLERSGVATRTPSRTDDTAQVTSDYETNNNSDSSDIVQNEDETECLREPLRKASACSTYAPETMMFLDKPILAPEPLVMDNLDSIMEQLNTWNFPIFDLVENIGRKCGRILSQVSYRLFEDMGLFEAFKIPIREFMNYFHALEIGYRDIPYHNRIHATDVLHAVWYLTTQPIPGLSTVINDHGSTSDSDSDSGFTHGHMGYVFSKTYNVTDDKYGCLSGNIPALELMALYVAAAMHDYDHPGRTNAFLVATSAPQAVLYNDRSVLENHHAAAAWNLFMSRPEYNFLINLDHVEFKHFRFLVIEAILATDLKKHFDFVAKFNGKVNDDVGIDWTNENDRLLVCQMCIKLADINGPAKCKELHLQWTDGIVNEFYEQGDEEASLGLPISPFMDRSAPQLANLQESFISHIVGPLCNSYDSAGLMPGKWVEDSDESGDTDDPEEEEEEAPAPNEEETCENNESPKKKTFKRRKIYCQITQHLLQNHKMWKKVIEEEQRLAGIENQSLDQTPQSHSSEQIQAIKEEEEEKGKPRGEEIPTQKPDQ

Compound | Kd [1] [µM] | Kd [2] [µM] | IC50 [3] [µM]
COc1cc(NC(=O)c2cc3c(nc2N2CCC(F)(F)C2)COC3)cc2c(C)cc(=O)[nH]c12 [US20250382308, Example 16] | 0.021 | 0.9 | 
CCN(CC)c1nc2c(cc1C(=O)Nc1cc(OC)c3[nH]c(=O)cc(C)c3c1)COC2 [US20250382308, Example 27] | 0.025 | 0.6 | > 10
